Reference: patent EP3184516A1, “CRYSTALLINE INCLUSION COMPLEXES OF MIRABEGRON WITH BETA-CYCLODEXTRIN” (Enantia, S.L., priority 2015, dated 2017)
Values after ≈ are worked out from the molar mass of the structure shown. Counter-ions that a name gives are not always drawn. Like-named read-outs stand apart in the source and are kept apart here.

Legend:
[1] = according to EP1440969A1, cited from earlier work
[2] = Water solubility study at room temperature by HPLC analysis of saturated water solutions; format: physicochemical
Experimental: A water solubility study at room temperature was performed comparing Mirabegron Form α and crystalline inclusion complexes of Mirabegron with β-cyclodextrin Forms I and II by HPLC analysis of saturated water solutions.
A slurring of Mirabegron Form α was performed under the same conditions.
A slurring of Mirabegron Form α (20 mg) was performed in the same conditions.

[3] = cited from earlier work
[4] = Solubility tests performed by the present inventors; format: physicochemical
Text: Two different crystal forms of Mirabegron free base, named as α-form and β-form, were also disclosed in EP1440969A1.

[5] = Kalariya et al., RSC Adv. 2015; cited from earlier work

Compound: Nc1nc(CC(=O)Nc2ccc(CCNC[C@H](O)c3ccccc3)cc2)cs1 [Mirabegron Form α, 2-(2-amino-1,3-thiazol-4-yl)-N-[4-(2-{[(2R)-2-hydroxy-2-phenylethyl]amino}ethyl)phenyl]acetamide]
- hygroscopicity ([1]; listed as α-form): non-hygroscopic
- stability of crystal form ([1]; listed as α-form): stable
- HPLC peak area corresponding to Mirabegron ([2]; 20 mg stirred in 0.8 ml of water for 19h, mother liquor (Form I experiment)): 1728 counts
- HPLC peak area corresponding to Mirabegron ([2]; 24 mg (Form α 20 mg) stirred in 1 ml of water for 19h, mother liquor (Form II experiment)): 1570 counts
- solubility in water (in words) ([3]; according to EP1440969A1): practically insoluble

Compound: Nc1nc(CC(=O)Nc2ccc(CCNC[C@H](O)c3ccccc3)cc2)cs1 [Mirabegron, 2-(2-amino-1,3-thiazol-4-yl)-N-[4-(2-{[(2R)-2-hydroxy-2-phenylethyl]amino}ethyl)phenyl]acetamide]
- solubility in water ([3]; free base, AusPar / FDA prescribing information): 0.082 mg/mL (≈ 207 µM)
- solubility in water at room temperature [4]: less than 50 volumes
- degradation under hydrolytic and oxidative stress conditions [5]: degrades
- stability under thermal and photolytic conditions [5]: stable

Compound: Nc1nc(CC(=O)Nc2ccc(CCNC[C@H](O)c3ccccc3)cc2)cs1 [dihydrochloride salt]
- hygroscopicity [1]: strongly hygroscopic
- stability of crystal form [1]: unstable

Compound: Nc1nc(CC(=O)Nc2ccc(CCNC[C@H](O)c3ccccc3)cc2)cs1 [β-form, 2-(2-amino-1,3-thiazol-4-yl)-N-[4-(2-{[(2R)-2-hydroxy-2-phenylethyl]amino}ethyl)phenyl]acetamide]
- hygroscopicity [1]: low hygroscopicity
- stability of crystal form [1]: metastable
